The values that follow come from patent publication US8092825B2, “Glycan binding proteins as therapeutic targets for retinal disorders and treatment methods based thereon” (The University of Tennessee Research Foundation, priority 2007, dated 2012).

Experiment [1] relates to photoreceptor OS membrane assembly in RPE-deprived retinas. Nature of the experiment: In vitro assay of photoreceptor outer segment (OS) membrane assembly in RPE-deprived Xenopus laevis tadpole retinas. Particulars: for ability to promote OS assembly in the presence of the Müller cell inhibitor: with 1×10^−5 M α-AAA, IPTG at 5×10^−5 M; for average OS organizational grade (mean±SEM; grade 4 = 100% organization): 5×10^−3 M sugar, three days in culture. The class given is cell-based. An excerpt:
We have used various oligosaccharides at concentrations ranging over four orders of magnitude to evaluate the ability of these oligosaccharides to support OS membrane assembly in RPE-deprived retina, using a Xenopus laevis system that allows for convenient analysis of OS membrane formation in vitro. In the RPE-deprived cultures, the RPE continues to be present as a cluster of cells at the ora serrata; however throughout the posterior pole and periphery of the retina, the RPE layer has been removed from its normal position adjacent to the photoreceptors.
Intact retinas were removed from stage 33/34 Xenopus laevis tadpoles and placed into culture in Niu-Twitty medium for three days as described above. Using this paradigm, all OS material is elaborated while in culture. […]

For experiment [2] the test system is unchanged. The note with it: previous studies (60, 61); cited from earlier work.
Experiment [3] concerns xrds38 isoform of Xenopus peripherin2. Nature of the experiment: Antisense oligonucleotide knockdown in isolated Xenopus laevis eye rudiments. The note with it: steady-state level vs retinas with intact RPE. It is filed as cell-based. The source says: We have developed an assay system using intact isolated Xenopus laevis eye rudiments coupled with antisense oligonucleotides that is well suited to evaluating the functional role of specific gene products, e.g., in OS membrane assembly. As an example of the capability of this assay system, we generated a loss-of-function model for peripherin2, a genetically and phenotypically well-characterized gene (76-82). Photoreceptors of Xenopus laevis express three distinct isoforms of the peripherin2 gene; cones express xrds38 exclusively, whereas rods express […] xrds38 (83). For purposes of validation of the antisense assay system, our evaluation was directed to xrds38. Phosphorothioated oligonucleotides (two 20-base antisense oligonucleotides and one 20-base sense oligonucleotide) derived from the 5' end of the coding sequences of the xrds38 isoform of Xenopus peripherin2 were utilized. Additional controls included: retinas with an intact RPE, and retinas devoid of RPE with 5 mM exogenous lactose added to the medium. […] The percentage of retinal cells that had positive uptake of the FITC-conjugated oligonucleotide was determined by comparing the volume of bright to dark areas in optical sections obtained with the confocal microscope. […] The steady-state levels of each protein were compared to the levels detected in control retinas maintained with an intact RPE cell layer.

The subject of the next experiment is Müller cells. The note with it: 1×10^−5 M, RPE-supported retinas; cited from earlier work.
Experiment [4] deals with putative retinal glycan receptor on Müller cells. Nature of the experiment: Binding of biotinylated-NA3 to embryonic retinas, anti-biotin immunostaining and confocal microscopy. The arrangement: species or system Xenopus laevis. The note with it: biotinylated-NA3 alone. The source says: Embryonic Xenopus laevis retinas were exposed to two experimental conditions: (1) biotinylated-NA3; and (2) biotinylated-NA3 with a molar excess of IPTG as a competitive sugar, to eliminate non-specific interactions of NA3 with retinal proteins. After exposure to the sugars followed by immunostaining using a mouse anti-biotin primary antibody and a chicken anti-mouse secondary antibody coupled to Alexa fluor 594 using standard protocols, eyes were bisected and viewed using a confocal microscope.
2. Localization of the glycan receptor using biotinylated-NA3 probe. RPE-deprived retinas from stage 33/34 Xenopus laevis tadpoles are exposed to Niu-Twitty medium containing 10^−7 M biotinylated-NA3 for 3 hours, followed by fixation in 4% paraformaldehyde. Control retinas are incubated in NA3+10^−5 M IPTG to reveal non-specific binding of the NA3 ligand. Subsequent procedures are identical to those described above for immunohistochemical localization. In this instance, however, the following primary and secondary antibodies are utilized: anti-biotin, mouse IgG (Molecular Probes) as primary antibody; and anti-mouse chicken IgG labeled with Alexa Fluor 488 (Molecular Probes). To confirm the localization to a particular retinal cell type, sections are co-stained with antisera that are cell type-specific (e.g., directed against Müller cell- or photoreceptor-specific gene products).

“Also recorded” adds a separate entry of the source.

As for `CC(C)S[C@@H]1O[C@H](CO)[C@H](O)[C@H](O)[C@H]1O` [IPTG, isopropyl beta-D-thiogalactopyranoside], the “average grade of OS membranes assembled during exposure to the sugar (early part)” value in experiment [1] (5×10^−5 M IPTG with 3H-leucine for two days) was “about 2.88±0.37”. Also, in experiment [1] (RPE-deprived retinas), the “concentration that optimally supports OS assembly (maximum effect)” value was 50 µM, the “fold lower concentration than lactose for comparable effect on OS assembly” value worked out at 100 fold and the “ability to promote OS assembly in the presence of the Müller cell inhibitor” value is recorded as “severely diminished”. In experiment [1] (RPE-deprived retinas, 5×10^−5 M IPTG), the “average OS grade at maximum response” value was found to be 2.61±0.37. Moreover, the “average grade of OS membranes assembled after removal of the sugar (later stage)” value in experiment [1] (two further days in non-supplemented medium after IPTG) amounted to 1.21±0.31.

Take `C[C@H](O)[C@@H](O)[C@@H](O)[C@H](O)C=O` [fucose]: in experiment [2], the “ability to let OS organize in the absence of the RPE (permissive / non-permissive sugars)” value (shortened to “ability … (permissive / non-permissive sugars)”) is “fail to exert any organizational effect”.

Turning to `O=C[C@H](O)[C@@H](O)[C@@H](O)[C@H](O)CO` [galactose], the “ability … (permissive / non-permissive sugars)” value in experiment [2] was “permit OS to organize”.

Regarding `OC[C@H]1O[C@@H](O[C@H]2[C@H](O)[C@@H](O)C(O)O[C@@H]2CO)[C@H](O)[C@@H](O)[C@H]1O` (some centres unmarked) [lactose], the “support of OS assembly in the absence of RPE” value (from here on “support of OS assembly”) in experiment [1] (5×10^−3 M (5 mM)) is “supports the proper formation of nascent OS; also recorded: OS assembly is supported”. In experiment [1] (RPE-deprived retinas), the “concentration that optimally supports OS assembly (maximum effect)” value was determined as 5000 µM and the “average OS organizational grade (mean±SEM; grade 4 = 100% organization)” value was 2.50±0.28. For the same molecule, the “share of OS membranes highly organized” value in experiment [1] (RPE-deprived retinas, 5×10^−3 M) was in the range of 50 to 75%. Besides, the “ability … (permissive / non-permissive sugars)” value in experiment [2] was “permit OS to organize”. Moreover, in experiment [3], the “opsin protein level relative to control” value is recorded as “not significantly different from controls” and the “peripherin2 protein level relative to control” value is listed as “slightly elevated above control”.

For the molecule `O=C[C@@H](O)[C@@H](O)[C@H](O)[C@H](O)CO` [mannose], the “support of OS assembly” value in experiment [1] (5×10^−3 M (5 mM)) was “does not favorably affect the folding of OS; also recorded: fails to support the proper assembly of OS”. In experiment [1] (RPE-deprived retinas), the “average OS organizational grade (mean±SEM; grade 4 = 100% organization)” value was 0.52±0.22. For the same molecule, the “ability … (permissive / non-permissive sugars)” value in experiment [2] is recorded as “fail to exert any organizational effect”.

As to `NC(CCCC(=O)O)C(=O)O` (stereo not drawn) [α-AAA, Alpha-aminoadipic acid], in the experiment on Müller cells, the “effect on Müller cell morphology and protein expression patterns” value is “selective alterations”; the “effect on ability of photoreceptors to synthesize opsin” value is recorded as “no affect”; the “effect on assembly of nascent OS membranes” value was “interfere with the ability of these cells to properly assembly nascent OS membranes”.

With “asialo, galactosylated, biantennary (NA2) oligosaccharide”, the “concentration that optimally supports OS assembly (maximum effect)” value in experiment [1] (RPE-deprived retinas) stood at 0.005 µM.

As for “asialo, galactosylated, triantennary (NA3) oligosaccharide”, the “support of OS assembly” value in experiment [1] (5×10^−10M) is “robust support of OS assembly”. Besides, in experiment [1] (RPE-deprived retinas), the “concentration that optimally supports OS assembly (maximum effect)” value was determined as 0.0005 µM. In addition, the binding to photoreceptors entry in experiment [4] is recorded as “did not bind to any portion of photoreceptors”.

B1: PEDF: pigment epithelium derived factor, RPE-secreted protein (protein, UniProt P36955 20-418, looked up)
Pigment epithelium-derived …: QNPASPPEEGSPDPDSTGALVEEEDPFFKVPVNKLAAAVSNFGYDLYRVRSSTSPTTNVLLSPLSVATALSALSLGAEQRTESIIHRALYYDLISSPDIHGTYKELLDTVTAPQKNLKSASRIVFEKKLRIKSSFVAPLEKSYGTRPRVLTGNPRLDLQEINNWVQAQMKGKLARSTKEIPDEISILLLGVAHFKGQWVTKFDSRKTSLEDFYLDEERTVRVPMMSDPKAVLRYGLDSDLSCKIAQLPLTGSMSIIFFLPLKVTQNLTLIEESLTSEFIHDIDRELKTVQAVLTVPKLKLSYEGEVTKSLQEMKLQSLFDSPDFSKITGKPIKLTQVEHRAGFEWNEDGAGTTPSPGLQPAHLTFPLDYHLNQPFIFVLRDTDTGALLFIGKILDPRGP
As to B1, the “ability to promote OS assembly in the presence of the Müller cell inhibitor” value in experiment [1] (RPE-deprived retinas) is reported as “able to support proper membrane folding”.
